# Experimental data from US20110020312A1, “METHODS FOR TREATMENT OF METABOLIC DISORDERS USING EPIMETABOLIC SHIFTERS, MULTIDIMENSIONAL INTRACELLULAR MOLECULES, OR ENVIRONMENTAL INFLUENCERS” (priority 2009, published 2011).
# Key:
# SKBr3 cells = assay: Nexin assay for apoptosis, 24 h Q10; assay type: cell-based, human; details: 50 μM or 100 μM Q10, 24 hours
# Text: The 7AAD dye will enter into cells with permeabilized cell membranes; primarily those cells that are in late apoptosis. Annexin-V-PE is a dye that binds to Phosphotidyl serine, which is exposed on the outer surface of the plasma membrane in early apoptotic cells. The Nexin reagent thus can be used to differentiate between different populations of apoptotic cells in a flow cytometer.
# SK-MEL-28 mitochondria = assay: LC-MS/MS quantification of Q10, Q10H2 and Q9 in mitochondrial enriched samples; assay type: cell-based; details: for Q10 in mitochondrial enriched sample: 100 μM Q10 in the media; for increase in mitochondrial Q10 levels: 100 μM Q10
# Protocol: To control for sample variance in total material, the levels of cholesterol was also measured to confirm that the differences were not due to sample size errors.
# [1] = tested on: Pancreatic Cancer Cells (PaCa2); assay: Real-time PCR Diabetes Array; assay type: cell-based; details: 100 uM Q10, various times
# Protocol: (§1) Experiments were carried out essentially as described above.
# [2] = tested on: Pancreatic Cancer Cells (PaCa2); assay: Real-time PCR Apoptosis Array; assay type: cell-based; details: 100 uM Q10, various times
# Protocol: as §1
# Caspase 3 = assay: Western blot, Caspase 3 levels; assay type: cell-based, human
# Protocol: The blots were stripped by incubating for 30 minutes with methanol, followed by two 10 minute washes with TBS-T, then 30 minutes of incubation with Stripping buffer at 50 deg C., and followed by two washes with 100 ml or more of TBS-T for 30′ each. The 2 blots were scanned in laser scanner to check for complete stripping. The blots were activated with methanol for 5 seconds, washed with water for 5 minutes, and TBST for 15 minutes. The blots were blocked for 1 hour with 5% blocking reagent in TBS-T at room temperature and then washed 3 times with TBS-T (1×-15′; 2×5′ each) and probed with the antibody for Caspase 3 in 5% BSA (Santacruz Biotechnology # sc7272) at 1:200 dilutions) overnight at 4 deg C. with shaking. After the overnight incubation with primary antibody for Caspase 3, the membranes were washed 3 times with TBS-T (1×-15′; 2×5′ each) and probed with the secondary antibody (antimouse; 1:10,000 dilution) for 1 h on the orbital tilting shaker at room temperature. After 1 h of incubation with secondary antibodies, the blots were washed 3 times with TBS-T (1×-15′; 2×5′ each) and then incubated with ECF reagent for 5 minutes and then each blot scanned with 5100 Fuji Laser scanner at 25 uM resolution, 16 bit, green laser, at 400V and at 500 V.
# The samples were processed and the gels were run, transferred, stained and scanned essentially as described above.
# The levels of Caspase 3 and actin were determined by probing the blots successively with primary antibodies for Caspase 3 and actin, essentially as described above.
# The Actin blots were stripped by incubating for 30 minutes with methanol, followed by two 10 minute washes with TBS-T, then 30 minutes of incubation with Stripping buffer at 50 deg C., and followed by two washes with 100 ml or more of TBS-T for 30′ each. The blots were scanned in laser scanner to check for complete stripping. The blots were activated with methanol for 5 seconds, washed with water for 5 minutes, and TBST for 15 minutes. The blots were blocked for 1 hour with 5% blocking reagent in TBS-T at room temperature and then washed 3 times with TBS-T (1×-15′; 2×5′ each) and probed with the primary antibody for Hif 1 alpha, Caspase 3 or PDHB in 5% BSA (at 1:200 by incubation overnight at 4 deg C. with gentle shaking. The primary antibody for Hif 1 alpha (Abcam ab2185; antirabbit) was at 1:500 dilution in 5% BSA. The primary antibody for Caspase 3 (Santacruz sc7272; antirabbit) was at 1:200 dilution in 5% BSA. The primary antibody for Pyruvate Dehydrogenase beta (PDHB) (Novus Biologicals H00005162-M03; antimouse) was at 1:500 dilution in 5% BSA. After incubation with primary antibodies, the membranes were washed 3 times with TBS-T (1×-15′; 2×5′ each) and probed with the secondary antibody (PDHB antimouse; Hif 1a and Caspase 3 antirabbit; 1:10,000 dilution) for 1 h at room temperature. After 1 h of incubation with secondary antibodies, the blots were washed 3 times with TBS-T (1×-15′; 2×5′ each) and then incubated with ECF reagent for 5 minutes and then each blot scanned with 5100 Fuji Laser scanner at 25 uM resolution, 16 bit, green laser, at 400V and at 500 V.
# The Actin blots were stripped by incubating for 30 minutes with methanol, followed by two 10 minute washes with TBS-T, then 30 minutes of incubation with Stripping buffer at 50 deg C., and followed by two washes with 100 ml or more of TBS-T for 30′ each. The blots were activated with methanol for 5 seconds, washed with water for 5 minutes, and TBST for 15 minutes. The blots were blocked for 1 hour with 5% blocking reagent in TBS-T at room temperature and then washed 3 times with TBS-T (1×-15′; 2×5′ each) and probed with the primary antibody for Caspase 3 or MMP-6 in 5% BSA by incubation overnight at 4 deg C. with gentle shaking. The primary antibody for Caspase 3 (Abcam ab44976-100; antirabbit) was at 1:500 dilution in 5% BSA. The primary antibody for MMP-6 (Santacruz scMM0029-ZB5; antimouse) was at 1:100 dilution in 5% BSA. […]
# [3] = rats, oral; cited from earlier work
structure (smiles),measurement,setting,value
"COC1=C(OC)C(=O)C(C/C=C(\C)CC/C=C(\C)CC/C=C(\C)CC/C=C(\C)CC/C=C(\C)CC/C=C(\C)CC/C=C(\C)CC/C=C(\C)CC/C=C(\C)CCC=C(C)C)=C(C)C1=O [Q10, Coenzyme Q10]",early and late apoptosis,SKBr3 cells,did not show any significant increases
same,Q10 in mitochondrial enriched sample,SK-MEL-28 mitochondria; 6 hr,7.21 ng/Sample
same,increase in mitochondrial Q10 levels,SK-MEL-28 mitochondria; 19 hours,~3 fold
same,Q10 in mitochondrial enriched sample,SK-MEL-28 mitochondria; 19 hr,16.77 ng/Sample
same,increase in mitochondrial Q10 levels,SK-MEL-28 mitochondria; 48 hour,~6 fold
same,Q10 in mitochondrial enriched sample,SK-MEL-28 mitochondria; 48 hr,46.63 ng/Sample
same,form of Q10 in mitochondria,SK-MEL-28 mitochondria; exogenous Q10 added to media,maintained in the supplied oxidized form
same,genes modulated by Q10 treatment (Diabetes arrays),[1],"ABCC8, ACLY, ADRB3, CCL5, CEACAM1, CEBRA, FOXG1, FOXP3, G6PD, GLP1R, GPD1, HNF4A, ICAM1, IGFBP5, INPPL1, IRS2, MAPK14, ME1, NFKB1, PARP1, PIK3C2B, PIK3CD, PPARGC1B, PRKAG2, PTPN1, PYGL, SLC2A4, SNAP25, HNF1B, TNRFSF1A, TRIB3, VAPA, VEGFA, IL4R and IL6"
same,genes modulated by Q10 treatment (Apoptosis arrays),[2],"ABL1, AKT1, Bcl2L1, BclAF1, CASP1, CASP2, CASP6, CIDEA, FADD, LTA, TNF, TNFSF10A and TNFSF10"
same,Caspase 3 Normalized Volume,"Caspase 3; HASMC, 5g48-50",766
same,Caspase 3 Normalized Volume,"Caspase 3; HASMC, 5g48-100",669
same,Caspase 3 Normalized Volume,"Caspase 3; HASMC, 22G24-50",835
same,Caspase 3 Normalized Volume,"Caspase 3; HASMC, 22G24-100",865
same,Caspase 3 Normalized Volume,"Caspase 3; HASMC, 22G48-50",639
same,Caspase 3 Normalized Volume,"Caspase 3; HASMC, 22G48-100",624
same,Caspase 3 Normalized Volume as a %,"Caspase 3; HepG2, 5g24-50, 2 Experiments",108%
same,Caspase 3 Normalized Volume as a %,"Caspase 3; HepG2, 5g24-100, 2 Experiments",176%
same,Caspase 3 Normalized Volume as a %,"Caspase 3; HepG2, 5g48-50, 2 Experiments",144%
same,Caspase 3 Normalized Volume as a %,"Caspase 3; HepG2, 5g48-100, 2 Experiments",95%
same,Caspase 3 Normalized Volume as a %,"Caspase 3; HepG2, 22G24-50, 2 Experiments",139%
same,Caspase 3 Normalized Volume as a %,"Caspase 3; HepG2, 22G24-100, 2 Experiments",178%
same,Caspase 3 Normalized Volume as a %,"Caspase 3; HepG2, 22G48-50, 2 Experiments",150%
same,Caspase 3 Normalized Volume as a %,"Caspase 3; HepG2, 22G48-100, 2 Experiments",145%
same,Caspase 3 Normalized Volume,"Caspase 3; PACA2, 5g-50, 24 h",325
same,Caspase 3 Normalized Volume,"Caspase 3; PACA2, 5g-50, 48 h",701
same,Caspase 3 Normalized Volume,"Caspase 3; PACA2, 5g-100, 24 h",374
same,Caspase 3 Normalized Volume,"Caspase 3; PACA2, 5g-100, 48 h",291
same,Caspase 3 Normalized Volume,"Caspase 3; PACA2, 22G-50, 24 h",675
same,Caspase 3 Normalized Volume,"Caspase 3; PACA2, 22G-50, 48 h",497
same,Caspase 3 Normalized Volume,"Caspase 3; PACA2, 22G-100, 24 h",842
same,Caspase 3 Normalized Volume,"Caspase 3; PACA2, 22G-100, 48 h",559
same,levels of caspase 3,Caspase 3; cancer cells,increased
same,expression of Caspase-3,Caspase 3; normal cells,moderately decreased
same,orally-administered CoQ10 absorbed,[3],2-3%
